# Where “and” joins values, the source holds several entries; their conditions need not be identical. Equal values may be shown once. Read-outs that look alike come from different tables or passages of the source.
# Tests used:
# human MAO-A [1] = target: T1, human MAO-A (Homo sapiens, UniProt P21397); experiment: Inhibition kinetics and time course of MAO-A inhibition; type: biochemical; conditions: for reversibility of MAO-A inhibition: time course, absorbance of 4-hydroxyquinoline at 316 nm, inhibitor close to IC50
# T1 construct: purchased Sigma Aldrich; host or cells: insect cells infected with baculovirus (microsomes)
# T1 sequence (P21397 1-527): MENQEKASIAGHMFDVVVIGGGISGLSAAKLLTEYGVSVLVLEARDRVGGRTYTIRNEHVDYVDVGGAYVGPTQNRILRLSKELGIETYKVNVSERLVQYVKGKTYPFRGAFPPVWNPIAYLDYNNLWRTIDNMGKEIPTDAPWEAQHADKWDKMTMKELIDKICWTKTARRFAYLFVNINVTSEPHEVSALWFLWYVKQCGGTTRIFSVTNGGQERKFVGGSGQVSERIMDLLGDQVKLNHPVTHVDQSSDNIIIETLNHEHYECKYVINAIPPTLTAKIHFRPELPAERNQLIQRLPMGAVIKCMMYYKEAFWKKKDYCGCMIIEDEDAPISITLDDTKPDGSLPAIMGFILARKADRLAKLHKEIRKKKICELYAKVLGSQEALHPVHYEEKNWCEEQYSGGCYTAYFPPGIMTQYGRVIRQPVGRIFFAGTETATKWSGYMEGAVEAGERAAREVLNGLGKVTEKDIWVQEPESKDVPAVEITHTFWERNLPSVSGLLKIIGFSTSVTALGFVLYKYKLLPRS
# Text: For the sake of clarity, the position of the Mannich base (-CH2NR2) on the main coumarin core will be indicated as C8, whereas the positions of Cl or Br and OMe on the 4-coumarin-3-yl moiety will be indicated as C6′ and C8′.
# Time courses of MAO-A inhibition by 2b and 5b, using a spectrophotometric assay measuring the absorbance of 4-
# (1 picture or pasted object on this page, not shown here)
# human MAO-A [2] = target: T1, human MAO-A; experiment: biochemical; type: biochemical; conditions: for inhibition at 10 µM / huMAO-A % inhibition: at 10 µM concentration, mean ± SD
# Protocol: (§1) The inhibition assays of human monoamine oxidases were conducted using a fluorescence-based method with kynuramine as a non-selective substrate for each isoform, MAO-A/B [44, 45, 46]. Recombinant human MAO-A and MAO-B (microsomes from insect cells infected with baculovirus; Sigma Aldrich, St. Louis, MO, USA) (Merk Life Science S.r.l., Milan, Italy) were used. The measurements were performed in triplicate in black round-bottom polystyrene 96-well plates (Greiner Bio-One, Kremsmünster, Austria). […] In the MAO inhibition assays, all compounds were initially screened at a concentration of 10 µM. Each of them was preincubated at 37 °C for 20 min with 50 µM kynuramine in a phosphate buffer (PBS, 0.1 M, pH 8.0), adjusted to 0.39 osmolarity with KCl. After adding recombinant human MAO-A/B (250 U/mg and 59 U/mg, respectively) and incubating for another 30 min, NaOH was added. The fluorescence was measured at excitation/emission wavelengths of 310/400 nm. […] The IC50 is reported as the mean ± SD of three independent experiments, each performed in duplicate.
# human huMAO-B = target: T2, human huMAO-B (Homo sapiens, UniProt P27338); experiment: biochemical; type: biochemical; conditions: for inhibition at 10 µM / huMAO-B % inhibition: at 10 µM concentration, mean ± SD
# T2 construct: purchased Sigma Aldrich; host or cells: insect cells infected with baculovirus (microsomes)
# T2 sequence (P27338 1-520): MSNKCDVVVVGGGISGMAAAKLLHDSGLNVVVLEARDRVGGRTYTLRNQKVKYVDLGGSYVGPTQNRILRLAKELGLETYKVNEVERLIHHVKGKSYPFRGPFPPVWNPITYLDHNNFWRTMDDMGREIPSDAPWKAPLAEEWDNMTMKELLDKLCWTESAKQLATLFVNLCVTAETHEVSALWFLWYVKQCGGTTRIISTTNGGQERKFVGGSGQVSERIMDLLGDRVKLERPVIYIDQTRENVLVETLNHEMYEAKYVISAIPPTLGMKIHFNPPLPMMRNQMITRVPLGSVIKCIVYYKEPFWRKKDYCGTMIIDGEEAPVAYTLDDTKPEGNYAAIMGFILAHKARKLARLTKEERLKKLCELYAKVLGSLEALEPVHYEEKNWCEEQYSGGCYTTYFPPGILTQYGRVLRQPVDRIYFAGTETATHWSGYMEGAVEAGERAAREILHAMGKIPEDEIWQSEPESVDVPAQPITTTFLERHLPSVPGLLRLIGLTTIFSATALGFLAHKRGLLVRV
# Protocol: as §1
# electric eel eeAChE = target: T3, electric eel eeAChE (Electrophorus electricus, UniProt O42275); experiment: biochemical; conditions: for inhibition at 10 µM / eeAChE % inhibition: at 10 µM concentration, mean ± SD; for IC50: mean ± SD of three independent determinations, ~10 means 50–60% inhibition at 10 µM
# T3 construct: Acetylcholinesterase from electric eel and butyrylcholinesterase from equine serum (Sigma Aldrich) were employed; purchased Sigma Aldrich; host or cells: electric eel (natural source)
# T3 sequence (O42275 24-633): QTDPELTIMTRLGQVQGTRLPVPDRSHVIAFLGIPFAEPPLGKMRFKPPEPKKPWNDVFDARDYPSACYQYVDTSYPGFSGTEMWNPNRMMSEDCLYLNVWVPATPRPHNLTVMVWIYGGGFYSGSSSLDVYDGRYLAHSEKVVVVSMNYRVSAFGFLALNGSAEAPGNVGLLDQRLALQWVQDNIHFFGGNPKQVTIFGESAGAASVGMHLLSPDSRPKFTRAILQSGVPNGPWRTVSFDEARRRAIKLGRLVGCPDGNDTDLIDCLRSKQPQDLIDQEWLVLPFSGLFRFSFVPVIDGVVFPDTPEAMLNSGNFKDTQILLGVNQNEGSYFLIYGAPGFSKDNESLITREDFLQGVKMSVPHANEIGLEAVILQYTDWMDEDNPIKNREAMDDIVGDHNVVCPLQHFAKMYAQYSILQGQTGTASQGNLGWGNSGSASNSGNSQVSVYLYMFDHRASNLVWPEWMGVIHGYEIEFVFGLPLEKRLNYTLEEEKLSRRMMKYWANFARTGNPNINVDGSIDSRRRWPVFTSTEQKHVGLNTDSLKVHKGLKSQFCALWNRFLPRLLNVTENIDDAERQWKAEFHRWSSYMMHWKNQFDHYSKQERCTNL
# horse serum eqBChE = target: T4, horse serum eqBChE (Equus caballus, UniProt P81908); experiment: biochemical; type: biochemical; conditions: for inhibition at 10 µM / eqBChE % inhibition / eqBChE inhibition class: at 10 µM concentration
# T4 construct: Acetylcholinesterase from electric eel and butyrylcholinesterase from equine serum (Sigma Aldrich) were employed; purchased Sigma Aldrich; host or cells: equine serum
# T4 sequence (P81908 whole entry): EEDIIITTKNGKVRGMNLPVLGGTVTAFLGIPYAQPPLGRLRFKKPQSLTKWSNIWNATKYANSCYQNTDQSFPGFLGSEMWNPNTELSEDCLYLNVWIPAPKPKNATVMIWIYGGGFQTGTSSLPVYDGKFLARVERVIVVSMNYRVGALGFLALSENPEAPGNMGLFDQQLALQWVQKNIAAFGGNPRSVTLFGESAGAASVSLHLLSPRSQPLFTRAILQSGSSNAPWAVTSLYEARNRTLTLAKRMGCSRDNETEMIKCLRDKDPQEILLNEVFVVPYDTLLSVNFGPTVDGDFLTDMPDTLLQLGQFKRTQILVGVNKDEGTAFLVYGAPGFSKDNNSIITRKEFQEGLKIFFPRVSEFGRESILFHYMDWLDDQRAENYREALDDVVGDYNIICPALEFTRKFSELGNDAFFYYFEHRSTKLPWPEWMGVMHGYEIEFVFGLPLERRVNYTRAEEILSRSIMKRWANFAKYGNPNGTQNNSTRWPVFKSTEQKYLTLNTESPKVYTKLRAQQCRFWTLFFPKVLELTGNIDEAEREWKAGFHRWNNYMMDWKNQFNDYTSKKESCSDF
# Protocol: (§2) Cholinesterase inhibition assays were carried out using the Ellman spectrophotometric method, modified for a 96-well plate format. Acetylcholinesterase from electric eel and butyrylcholinesterase from equine serum (Sigma Aldrich) were employed. The measurements were performed in triplicate using clear, flat-bottom polystyrene plates (Greiner Bio-One).
# [3] = Kinetic solubility in aqueous buffers (RP-HPLC); type: physicochemical; conditions: for solubility at 2 h: PBS buffer, 25 °C, pH 7.4, aqueous buffer, kinetic from dmso stock, PBS (50 mM, pH 7.4, 0.15 M KCl) at 25 ± 1 °C, n = 3, read-out: Solubility Exp.
# Protocol: Water solubility and lipophilicity parameters were measured following previously reported methods. […] The mixture was then separated by centrifugation at 2500 rpm for 3 min. Immediately after filtration, 100 µL of the filtrate was mixed with an equal volume of a 1:1 (v/v) DMSO and PBS (50 mM, pH 7.4, KCl 0.15 M) or HCl (0.01 M, pH 2, KCl 0.15 M) solution to prevent precipitation from the saturated solution and subsequently analyzed by HPLC. The peak area was compared to a calibration curve of the tested compound in MeOH. The analytical parameters were set as follows. Mobile phase: MeOH/water pH 2.8 (acetic acid 0.5% v/v) at different percentages depending on the retention time of each test compound; stationary phase: Phenomenex, Kinetex 5 µ, C8, (150 × 3 mm); flux: […]; injection: 2 µL; λ 330 nm. The analyses were performed on the Agilent HPLC 1260 Infinity Series Integrated System (Agilent Technologies, Milan, Italy).
# [4] = Lipophilicity by RP-HPLC (log k'w); type: physicochemical; conditions: C18, extrapolated to 100% water mobile phase
# Protocol: The lipophilicity of the five compounds in Table 4 was assessed by calculation and experimental approaches. As a calculated lipophilicity parameter (log Pcalc), we took from the SwissADME free website (http://www.swissadme.ch) the ‘Consensus Log Po/w’, that is, the arithmetic mean of octanol/water log Ps calculated by five methods (iLOGP, XLOGP3, WLOGP, MLOGP, and SILICOS-IT).
# The lipophilicity parameters were determined by an RP-HPLC technique. In short, methanolic solutions of the examined compounds (1 mg·mL^−1) were analyzed by the Agilent 1260 infinite HPLC system (Agilent Technologies, Milan, Italy) equipped with a diode array detector (DAD), using a Phenomenex C18-column (Kinetex 5 μ, 100 Å, 150 × 3 mm) as the stationary phase and MeOH/water buffer mobile phases with different v/v composition (i.e., mobile phases containing 0.05 increments of MeOH volume fractions in 10 mM ammonium formate buffer at pH 4.5; φMeOH ranging between 0.70 and 0.20). The chromatographic measurements were carried out at 25 ± 1 °C, flow rate of 0.5 mL·min^−1, and detection at λ 330 nm. The log of capacity factors of each compound at different mobile phase compositions was calculated (log k′ = log (tR − t0)/t0, where tR represents the retention time of the solute and t0 is the column dead time). For each compound, the equation of the linear relationship between log k′ and φMeOH (R^2 > 0.991) on at least five datapoints, each from duplicate, was derived by regression analysis and the intercept at the y-axis (i.e., φMeOH = 0) calculated as the lipophilicity parameter log k′w.
# human huAChE = human huAChE (Homo sapiens, UniProt P22303); experiment: biochemical; type: biochemical
# human huAChE, sequence (P22303 32-614): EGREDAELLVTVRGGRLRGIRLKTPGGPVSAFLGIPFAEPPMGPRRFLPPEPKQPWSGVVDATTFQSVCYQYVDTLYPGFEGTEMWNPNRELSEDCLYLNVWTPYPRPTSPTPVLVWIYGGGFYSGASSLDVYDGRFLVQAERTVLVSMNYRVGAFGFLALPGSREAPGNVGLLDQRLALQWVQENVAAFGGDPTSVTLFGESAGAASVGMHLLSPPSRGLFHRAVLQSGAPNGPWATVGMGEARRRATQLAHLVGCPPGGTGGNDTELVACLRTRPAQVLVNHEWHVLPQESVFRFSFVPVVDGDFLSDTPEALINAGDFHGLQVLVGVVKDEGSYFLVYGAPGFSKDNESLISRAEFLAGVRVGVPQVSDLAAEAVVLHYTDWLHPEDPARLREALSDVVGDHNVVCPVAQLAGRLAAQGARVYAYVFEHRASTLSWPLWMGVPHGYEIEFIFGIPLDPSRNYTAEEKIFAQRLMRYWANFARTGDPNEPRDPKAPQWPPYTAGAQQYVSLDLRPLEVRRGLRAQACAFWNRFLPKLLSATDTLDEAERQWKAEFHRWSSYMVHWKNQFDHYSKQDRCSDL
# Protocol: The inhibition of human huAChE was also evaluated for five compounds.
# as §2
# [5] = read-out: eqBChE inhibition class
# [6] = mean ± SD, read-out: eqBChE % inhibition
# [7] = mean ± SD of three independent determinations, ~10 means 50–60% inhibition at 10 µM
smiles,measurement,setting,value
"C#CCN(C)CCCOc1ccc(Cl)cc1Cl [Clorgiline, reference compound]",reversibility of MAO-A inhibition,human MAO-A [1],completely flattened
"CN(C)Cc1c(O)ccc2c(-c3cc4ccccc4oc3=O)cc(=O)oc12 [Compound 2a, 8-((dimethylamino)methyl)-4-(2-oxo-2H-chromen-3-yl)-7-hydroxy-2H-chromen-2-one]",IC50,human MAO-A [2],8.3 ± 0.36 µM
same,inhibition at 10 µM,human huMAO-B,36%
same,inhibition at 10 µM,electric eel eeAChE,22%
same,inhibition at 10 µM,horse serum eqBChE; [5],< 10%
same,solubility at 2 h,[3],183 µM
same,"experimental solubility in PBS pH 7.4, times higher than calculated with the ESOL model",[3]; PBS pH 7.4 vs ESOL,two
same,Log k’w (polycratic capacity factor),[4],2.11
"COc1cccc2cc(-c3cc(=O)oc4c(CN(C)C)c(O)ccc34)c(=O)oc12 [Compound 2d, 8-((dimethylamino)methyl)-4-(8-methoxy-2-oxo-2H-chromen-3-yl)-7-hydroxy-2H-chromen-2-one]",inhibition at 10 µM,human huMAO-B,28%
same,inhibition at 10 µM,electric eel eeAChE,39%
same,inhibition at 10 µM,horse serum eqBChE; [6],25%
same,solubility at 2 h,[3],196 µM
same,Log k’w (polycratic capacity factor),[4],2.32
CCCN(CCC)Cc1c(O)ccc2c(-c3cc4ccccc4oc3=O)cc(=O)oc12 [Compound 4a],inhibition at 10 µM,human MAO-A [2],29%
same,inhibition at 10 µM,human huMAO-B,33%
same,inhibition at 10 µM,electric eel eeAChE,37%
same,inhibition at 10 µM,horse serum eqBChE; [6],22%
"CCCN(CCC)Cc1c(O)ccc2c(-c3cc4cccc(OC)c4oc3=O)cc(=O)oc12 [Compound 4d, 8-((dipropylamino)methyl)-4-(8-methoxy-2-oxo-2H-chromen-3-yl)-7-hydroxy-2H-chromen-2-one]",inhibition at 10 µM,human MAO-A [2],29%
same,inhibition at 10 µM,human huMAO-B,43%
same,IC50,electric eel eeAChE,< 10 µM and 3.05 µM
same,IC50,human huAChE,0.97 ± 0.2 µM
same,inhibition at 10 µM,horse serum eqBChE; [6],14%
CCCCN(C)Cc1c(O)ccc2c(-c3cc4cc(Cl)ccc4oc3=O)cc(=O)oc12 [Compound 5b],IC50,human MAO-A [2]; [7],1.85 ± 0.11 µM
same,IC50,human huMAO-B; [7],~10 µM
same,eeAChE % inhibition,electric eel eeAChE,[25 ± 5] %
same,IC50,human huAChE; [7],~10 µM
same,eqBChE % inhibition,horse serum eqBChE; mean ± SD,[17 ± 7] %
same,mode of inhibition of MAO-A,human MAO-A [1]; Michaelis–Menten and Lineweaver–Burk plots,competitive
same,Ki,"human MAO-A [1]; human MAO-A, competitive inhibition, read-out: inhibition constant (Ki) MAO-A",0.326 µM
same,reversibility of MAO-A inhibition,human MAO-A [1],reversible
"CCCCN(C)Cc1c(O)ccc2c(-c3cc4cccc(OC)c4oc3=O)cc(=O)oc12 [Compound 5d, 8-((butyl(methyl)amino)methyl)-4-(8-methoxy-2-oxo-2H-chromen-3-yl)-7-hydroxy-2H-chromen-2-one]",inhibition at 10 µM,human MAO-A [2],39%
same,IC50,human huMAO-B,~10 µM
same,IC50,electric eel eeAChE,< 10 µM and 7.8 µM
same,inhibition at 10 µM,horse serum eqBChE; [6],40%
COCCN(CCOC)Cc1c(O)ccc2c(-c3cc4cc(Cl)ccc4oc3=O)cc(=O)oc12 [Compound 6b],huMAO-A % inhibition,human MAO-A [2],[45 ± 3] %
same,huMAO-B % inhibition,human huMAO-B,[35 ± 9] %
same,eeAChE % inhibition,electric eel eeAChE,[16 ± 4] %
same,eqBChE inhibition class,horse serum eqBChE,i.a. (compounds displaying average % inhibition less than 10% at 10 µM concentration)
"COCCN(CCOC)Cc1c(O)ccc2c(-c3cc4cccc(OC)c4oc3=O)cc(=O)oc12 [Compound 6d, 8-((bis(2-methoxyethyl)amino)methyl)-4-(8-methoxy-2-oxo-2H-chromen-3-yl)-7-hydroxy-2H-chromen-2-one]",inhibition at 10 µM,human MAO-A [2],26%
same,inhibition at 10 µM,human huMAO-B,31%
same,inhibition at 10 µM,electric eel eeAChE,20%
same,inhibition at 10 µM,horse serum eqBChE; [5],< 10%
COc1cccc2cc(-c3cc(=O)oc4c(CN(CC(C)C)CC(C)C)c(O)ccc34)c(=O)oc12 [Compound 7d],huMAO-A % inhibition,human MAO-A [2],[27 ± 3] %
same,huMAO-B % inhibition,human huMAO-B,[31 ± 2] %
same,IC50,electric eel eeAChE,~10 µM
same,eqBChE % inhibition,horse serum eqBChE; mean ± SD,[34 ± 3] %
CN(Cc1ccccc1)Cc1c(O)ccc2c(-c3cc4cc(Cl)ccc4oc3=O)cc(=O)oc12 [Compound 8b],IC50,human MAO-A [2]; [7],~10 µM
same,huMAO-B % inhibition,human huMAO-B,[38 ± 3] %
same,eeAChE % inhibition,electric eel eeAChE,[16 ± 6] %
same,eqBChE inhibition class,horse serum eqBChE,i.a. (compounds displaying average % inhibition less than 10% at 10 µM concentration)
COc1cccc2cc(-c3cc(=O)oc4c(CN(C)Cc5ccccc5)c(O)ccc34)c(=O)oc12 [Compound 8d],huMAO-A % inhibition,human MAO-A [2],[31 ± 4] %
same,huMAO-B % inhibition,human huMAO-B,[42 ± 3] %
same,IC50,electric eel eeAChE,~10 µM
same,IC50,horse serum eqBChE; [7],~10 µM
